Measured values as given in ChEMBL document CHEMBL1140453, “Solid-phase synthesis and thermal denaturation study of cyclic PNAs targeting the HIV-1 TAR RNA loop” (Bioorg Med Chem Lett, 2007).

Key:
Nucleic Acid [1] = experiment: Binding affinity to HIV1 3B mini TAR RNA assessed as melting temperature by UV spectrometry based thermal denaturation assay; assay type: nucleic-acid assay; settings: Human immunodeficiency virus 1
Nucleic Acid [2] = experiment: Binding affinity to HIV1 3B mini TAR RNA assessed as change in melting temperature by UV spectrometry based thermal denaturation assay; assay type: nucleic-acid assay; settings: Human immunodeficiency virus 1

Tm (Nucleic Acid [1])	ΔTm (Nucleic Acid [2])	Compound
43.2 °C	–	Cc1cn(CC(=O)N(CCNC(=O)CN(CCNC(=O)[C@@H](N)CCCCN)C(=O)Cn2cnc3c(=O)[nH]c(N)nc32)CC(=O)NCCN(CC(=O)NCCN(CC(=O)NCCN(CC(=O)NCCN(CC(=O)NCCN(CC(=O)NCCN(CC(=O)N[C@@H](CCC(N)=O)C(=O)O)C(=O)Cn2cnc3c(N)ncnc32)C(=O)Cn2cnc3c(=O)[nH]c(N)nc32)C(=O)Cn2cnc3c(N)ncnc32)C(=O)Cn2ccc(N)nc2=O)C(=O)Cn2cnc3c(N)ncnc32)C(=O)Cn2ccc(N)nc2=O)c(=O)[nH]c1=O
40.5 °C	0.5 °C	Cc1cn(CC(=O)N(CCNC(=O)CN(CCNC(=O)[C@@H](N)CCCCN)C(=O)Cn2cnc3c(=O)[nH]c(N)nc32)CC(=O)NCCN(CC(=O)NCCN(CC(=O)NCCN(CC(=O)NCCN(CC(=O)NCCN(CC(=O)NCCN(CC(=O)N[C@@H](CCC(N)=O)C(=O)O)C(=O)Cn2cnc3c(N)ncnc32)C(=O)Cn2cnc3c(=O)[nH]c(N)nc32)C(=O)Cn2cnc3c(N)ncnc32)C(=O)Cn2ccc(N)nc2=O)C(=O)Cn2ccc(N)nc2=O)C(=O)Cn2ccc(N)nc2=O)c(=O)[nH]c1=O
